Experimental data reported in patent US5770563A, “Heparin- and sulfatide binding peptides from the type I repeats of human thrombospondin and conjugates thereof” (The United States of America as represented by the …, priority 1995, dated 1998).
Where two headings read alike, the source gives them in different places. One block for each molecule: values may come before it. Square brackets hold non-standard residues; d marks the D form. Peptide text beside a SMILES is read from it. Mpa = O=C(O)CCS

Legend:
[1] = target: thrombospondin binding to heparin; experiment: Inhibition of 125I-thrombospondin binding to immobilized heparin-BSA; set-up: species or system human
Description: (§1) The peptides were tested as inhibitors of laminin, thrombospondin or apolipoprotein E binding to a heparin-bovine serum albumen conjugate or to a sulfatide in a solid phase assay essentially following the procedure described in Zabrenetzky et al., Cancer Res., Vol. 50, pages 5937-5942 (1990). Sulfatide (0.2 μg/well for thrombospondin binding, 0.6 μg/well for laminin binding) was immobilized in a mixture of 50 ng of phosphatidyl choline, and 30 ng of cholesterol on polyvinyl chloride microtiter plates. Heparin-BSA (0.2 μg/well) was absorbed onto polyvinyl chloride microtiter plate wells by incubation of 50 μl of Dulbecco's PBS for 2 h at 37°. The wells were emptied and filled with 50 mM tris, pH 7.8 containing 150 mM NaCl, 1 mM CaCl2, 0.025% NaN3, and 1% BSA. After 30 minutes, the wells were emptied and 30 μl of various concentrations of potential inhibitory peptides diluted in the same buffer or buffer alone and 30 μl of ^125 I-labeled laminin, thrombospondin or apolipoprotein E (0.2 μg/ml) were added to each well. After 3 hours at 4°, the wells were washed 6 times with 0.15M NaCl, cut from the plate and the bound radioactivity counted. FIGS. 1A-B and 2A-B show the level of thrombospondin binding to sulfatide and heparin-BSA, respectively, in the presence of increasing concetrations of the peptides listed. FIGS. 3 and 4A-B show the level of laminin binding to sulfatide and heparin-BSA, respectively, in the presence of increasing concentrations of the listed peptides.
Microtiter plate wells were coated with heparin-BSA. Heparin-BSA (0.2 μg/well) was adsorbed by incubation in 50 μl of Dulbecco's PBS for 2 h at 370. The wells were emptied, filled with tris-BSA, and incubated for 30 to 60 minutes. The buffer was removed, and labelled thrombospondin was added and incubated in the wells for 3 h at 40. The wells were emptied and washed 4 times with saline. The bottoms of the wells were cut from the plate and counted to quantify thrombospondin binding. Inhibition of thrombospondin binding was determined using peptides diluted in 30 μl of 50 mM tris buffer, pH 7.8, containing 110 mM NaCl, 1 mM CaCl2, 0.025% NaN3, and 1% BSA or buffer alone and 30 μl of ^125 I-labeled TSP (0.2 μg/ml).

[2] = target: thrombospondin binding to sulfatide; experiment: Inhibition of 125I-thrombospondin binding to sulfatide; set-up: species or system human; details: Table 1, free peptide
Description: as §1

[3] = target: laminin binding to heparin; experiment: Inhibition of 125I-laminin binding to heparin-BSA; set-up: species or system mouse; details: Table 2, free peptide
Description: as §1

[4] = target: laminin binding to sulfatide; experiment: Inhibition of 125I-laminin binding to sulfatide; set-up: species or system mouse; details: Table 2, free peptide
Description: as §1

[5] = target: apolipoprotein E binding to heparin; experiment: Inhibition of 125I-apolipoprotein E binding to heparin-BSA; details: Table 2, free peptide; read-out: IC50 Apo E Binding to Heparin
Description: as §1

A2058 melanoma cells [6] = experiment: 125I-thrombospondin binding to A2058 melanoma cells; assay type: cell-based, human
Description: (§2) Melanoma cells (1×10^5 in 0.2 ml) were incubated with 0.2 μg/ml labeled laminin alone or in the presence of 200 micrograms per ml of peptides from SEQ ID NO:1, SEQ ID NO:2, or SEQ ID NO:3, type-I repeats from thrombospondin (FIG. 5A). Melanoma cells were also incubated with labelled laminin or thrombospondin alone or in the presence of 10 μg/ml of peptides from the first (184, SEQ ID NO:1), second (185, SEQ ID NO:2 and 246, SEQ ID NO:19), or third type I repeat of thrombospondin (186, SEQ ID NO:3) or 1 μg/ml heparin (FIG. 5B). The cells were centrifuged through oil to separate the free laminin from the bound laminin followed by quantifying the radioactivity in the cell pellet by a gamma counter. The results are presented in FIGS. 5A and B, as a percent of control binding determined in the absence of peptide and is the mean of triplicate determinations±the standard deviation.
(§3) Melanoma cells (3×10^5 cells in 0.2 ml) were incubated with 0.2 μg/ml of labelled I^125 -thrombospondin alone or in the presence of increasing concentrations of heparin or a peptide having the sequence according to SEQ ID NO:1 or a combination of the two inhibitors. […]
(§4) A2058 melanoma cells were harvested as described above and suspended in Dulbecco's PBS containing 1 mg/ml BSA. […] The supernatant fluid was aspirated, and the bottom of the tube was cut and counted.

A2058 melanoma cells [7] = experiment: A2058 melanoma cell adhesion to peptides adsorbed on plastic; assay type: cell-based, human
Description: Human melanoma cell line A2058 (Todaro et al., Proc. Natl. Acad. Sci USA 77, 5258-5262 (1980)) was maintained by monolayer culture at 37° with 5% carbon dioxide in RPMI 1640 medium containing 10% fetal bovine serum. For attachment assays, cells were removed using trypsin, passaged at 10^4 cells/cm^2 and harvested between days 5 and 7. Attachment and spreading on thrombospondin-coated plastic was determined as previously described (Roberts et al., J. Cell Biol. 104, 131-139 (1987)). Inhibition was determined by adding the inhibitor diluted in 0.4 ml of bicarbonate-free RPMI 1640 medium, containing 1 mg/ml of bovine serum albumin (fatty acid free, Sigma), pH 7.3, to wells of a 24-well dish containing bacteriological polystyrene was coated with the indicated peptides at 200 μg/ml. Melanoma cells were harvested by incubation with phosphate buffered saline containing 2.5 mM EDTA for 20 minutes at 37°. The cells were centrifuged and viability (routinely >99%) was assessed by trypan blue exclusion. The cells were resuspended in medium and allowed to recover in suspension for 1 h. Melanoma cells (2×10^5 ) suspended in 100 μl of medium (approx 10^3 /mm^2) were added to each well and allowed to attach for 60 minutes at 37° C. in a humidified atmosphere.

[8] = target: basic fibroblast growth factor (FGF-2) binding to heparin; experiment: Inhibition of 125I-bFGF binding to heparin-BSA conjugate; details: retro-inverso peptides; read-out: IC50 for Inhibition of Binding
Description: Binding of ^125 I-bFGF to heparin was determined using an immobilized heparin-BSA conjugate as previously described (Guo, et al. (1992) Proc. Nat'l Acad. Sci. 89:3040-3044). ^125 I-bFGF, prepared as described by Neufeld, et al, (1985), J. Biol. Chem. 260:13860-13868, was added described above, and incubated for 2 hours at 25° C. Bound radioactivity was determined after washing and cutting the wells from the plate. FIGS. 40A, B and C show the inhibition of ^125 I-bFGF binding to heparin by a number of TSP peptide analogs.

bovine endothelial cells = experiment: Inhibition of bovine endothelial cell proliferation (Table 7); assay type: cell-based; details: free peptide; read-out: IC50 Inhibitory Activity, Free Peptide
Description: Similar structure-function and epitope mapping studies were carried out with regard to inhibition of bovine endothelial cell proliferation. […] This may be due either to a lower tendency of the conjugates to stick to the microtiter wells or a greater tendency to disrupt binding of the cells to the substratum in the wells.
Endothelial cell proliferation was measured using the CELL TITER 96™ assay (Promega, Madison, Wis.). 5×10^3 cells were plated into each well of a 96-well culture plate in 0.5 or 5% FCS-containing medium together with the indicated concentrations of growth effectors. After 72 h, 15 μl of dye solution was added to each well, and the plates were incubated for an additional 4 h. Solubilization solution was added, and absorbance at 570 nm was determined after 24 h as described by the manufacturer.

[9] = system: MDA MB435 breast carcinoma cells; experiment: MDA MB435 human breast carcinoma cell proliferation; assay type: cell-based; details: free peptide
Description: Human breast carcinoma cells MDA MB435 (American Type Culture Collection) were grown in RPMI 1640 medium containing 10% fetal calf serum. Proliferation was determined as described in FIG. 18 and 44A, B and C.
Human breast carcinoma cells MDA MB435 (American Type Culture Collection) were grown in RPMI 1640 medium containing 10% fetal calf serum. Proliferation was determined in the presence of 0.5% fetal calf serum and bFGF as described in FIG. 19.

A2058 melanoma cells [10] = experiment: 125I-laminin binding to A2058 melanoma cells; assay type: cell-based, human; details: excess heparin
Description: as §2, §3, §4

AIDS-KS cells = experiment: AIDS-KS cell chemotaxis, modified Boyden chamber; assay type: cell-based, human; details: added in the lower well
Description: Directed migration (chemotaxis) and general migration (chemokinesis) of AIDS-KS cells in culture was measured by the modified Boyden chamber assay using fibronectin coated […] Nucleopore filters as previously described. In brief, the AIDS-KS cells, were trypsinized then resuspended in RPMI 1640 containing […] (GIBCO-BRL) and 20% activated lymphocyte conditioned medium. The trypsinized cells were allowed to recover in suspension for 2 hours, then the cells were recovered by centrifugation and resuspended in RPMI 1640 containing 0.1% BS at 5×10^5 cells/ml prior to adding 100 μl to the upper wells in the chemotaxis chamber. Migration to BSA (0.1%) and OSM was performed in the presence of the indicated concentrations of TSP, and TSP peptide-FICOLL conjugates. After 3 hours incubation at 37° C. filters were stained with Diff Quick (Merz-Dade, Dudingen, Switzerland), and the migrated cells in ten high-power fields were counted. The values are triplicate determinations and the bars indicate standard deviations, n=3.

[11] = Table 1, free peptide, read-out: IC50 Heparin Binding, inhibition of 125I-thrombospondin binding
[12] = retro-inverso peptides, free, read-out: IC50 Inhibitory Activity, Free Peptide

IC50 [1, 11]: 6 µM
inhibition of thrombospondin binding to heparin, in words ([1]; free peptide): active
IC50 [2]: 14 µM
IC50 [3]: 3 µM
IC50 [4]: 3.9 µM
IC50 [5]: 84 µM
Molecule: CC(C)[C@H](NC(=O)[C@H](CO)NC(=O)[C@@H](N)CS)C(=O)N[C@H](C(=O)N[C@@H](CS)C(=O)NCC(=O)O)[C@@H](C)O [Peptide 187, CSVTCG] (H-CSVTCG-OH)
promotion of melanoma cell adhesion, in words (A2058 melanoma cells [7]; peptide adsorbed on plastic): promoted significant cell adhesion above background

IC50 [1, 12]: 0.13 µM
IC50 [8]: > 20 µM
Molecule: C[C@@H](NC(=O)CCS)C(=O)N[C@H](C)C(=O)N[C@H](Cc1c[nH]c2ccccc12)C(=O)N[C@H](Cc1c[nH]cn1)C(=O)N[C@H](CO)C(=O)N[C@H](Cc1c[nH]c2ccccc12)C(=O)NCC(=O)NCC(=O)N[C@H](C)C(=O)N[C@H](CCC(N)=O)C(=O)N[C@H](CCCCN)C(=O)N[C@H](C)C(=O)N[C@H](CCCNC(=N)N)C(=O)N[C@H](CCCCN)C(N)=O [Peptide 483, ri-amKRAKQAGGWSHWAAtp] ([Mpa][dA][dA][dW][dH][dS][dW]GG[dA][dQ][dK][dA][dR][dK]-NH2)
IC50 (bovine endothelial cells): 4 µM
inhibition of MDA MB435 proliferation, in words [9]: active

IC50 [1, 12]: 6.2 µM
IC50 [8]: 18 µM
Molecule: CC(=O)N[C@H](CS)C(=O)N[C@H](CO)C(=O)N[C@H](CO)C(=O)N[C@H](C)C(=O)N1CCC[C@@H]1C(=O)N[C@H](CO)C(=O)N[C@H](C)C(=O)N[C@H](Cc1c[nH]cn1)C(=O)N[C@H](CO)C(=O)N[C@H](C)C(=O)NCC(=O)NCC(=O)N[C@H](CC(=O)O)C(=O)N[C@H](CCC(N)=O)C(=O)N[C@H](CCCCN)C(=O)N[C@H](C)C(=O)N[C@H](CCCNC(=N)N)C(=O)N[C@H](CCCCN)C(N)=O [Peptide 513, ri-amKRAKQDGGASHASPASSCac] (Ac-[dC][dS][dS][dA][dP][dS][dA][dH][dS][dA]GG[dD][dQ][dK][dA][dR][dK]-NH2)
IC50 (bovine endothelial cells): 18 µM

The remaining lines, values behind:

Molecule: C[C@@H](O)[C@H](NC(=O)[C@H](CO)NC(=O)[C@H](CS)NC(=O)[C@H](CO)NC(=O)[C@@H](NC(=O)[C@H](Cc1c[nH]c2ccccc12)NC(=O)[C@H](CCC(=O)O)NC(=O)[C@H](CO)NC(=O)[C@H](Cc1c[nH]c2ccccc12)NC(=O)[C@@H]1CCCN1C(=O)[C@@H](N)CO)[C@@H](C)O)C(=O)N[C@@H](CO)C(=O)O [Peptide 184, SPWSEWTSCSTS] (H-SPWSEWTSCSTS-OH)
IC50 [1, 11]: 47 µM
IC50 [2]: 14 µM
IC50 [3]: 36 µM
IC50 [4]: 42 µM
IC50 [5]: 4.2 µM
inhibition of thrombospondin binding to A2058 melanoma cells, in words (A2058 melanoma cells [6]; dose dependent): inhibited

Molecule: apolipoprotein E: recombinant apolipoprotein E, heparin-binding protein
inhibition of A2058 adhesion to the peptides (A2058 melanoma cells [7]; disks coated with 200 μg/ml peptide 185): inhibited adhesion

Molecule: heparin [reference compound]
inhibition of thrombospondin binding to A2058 melanoma cells by heparin (A2058 melanoma cells [6]; heparin): approximately 90%
laminin binding resistant to inhibition (A2058 melanoma cells [10]): approximately 50%

B1: oncostatin M: growth factor, chemoattractant for AIDS-KS cells (protein, UniProt P13725 26-221, looked up)
Oncostatin-M: AAIGSCSKEYRVLLGQLQKQTDLMQDTSRLLDPYIRIQGLDVPKLREHCRERPGAFPSEETLRGLGRRGFLQTLNATLGCVLHRLADLEQRLPKAQDLERSGLNIEDLEKLQMARPNILGLRNNIYCMAQLLDNSDTAEPTKAGRGASQPPTPTPASDAFQRKLEGCRFLHGYHRFMHSVGRVFSKWGESPNRSRR
stimulation of AIDS-KS cell motility (AIDS-KS cells): simulated motility
